Molecular target: T1, human follicle-stimulating hormone receptor (FSHR) (Homo sapiens, UniProt P23945)
T1 construct: host or cells: CHO-K1
T1 sequence (P23945 18-695): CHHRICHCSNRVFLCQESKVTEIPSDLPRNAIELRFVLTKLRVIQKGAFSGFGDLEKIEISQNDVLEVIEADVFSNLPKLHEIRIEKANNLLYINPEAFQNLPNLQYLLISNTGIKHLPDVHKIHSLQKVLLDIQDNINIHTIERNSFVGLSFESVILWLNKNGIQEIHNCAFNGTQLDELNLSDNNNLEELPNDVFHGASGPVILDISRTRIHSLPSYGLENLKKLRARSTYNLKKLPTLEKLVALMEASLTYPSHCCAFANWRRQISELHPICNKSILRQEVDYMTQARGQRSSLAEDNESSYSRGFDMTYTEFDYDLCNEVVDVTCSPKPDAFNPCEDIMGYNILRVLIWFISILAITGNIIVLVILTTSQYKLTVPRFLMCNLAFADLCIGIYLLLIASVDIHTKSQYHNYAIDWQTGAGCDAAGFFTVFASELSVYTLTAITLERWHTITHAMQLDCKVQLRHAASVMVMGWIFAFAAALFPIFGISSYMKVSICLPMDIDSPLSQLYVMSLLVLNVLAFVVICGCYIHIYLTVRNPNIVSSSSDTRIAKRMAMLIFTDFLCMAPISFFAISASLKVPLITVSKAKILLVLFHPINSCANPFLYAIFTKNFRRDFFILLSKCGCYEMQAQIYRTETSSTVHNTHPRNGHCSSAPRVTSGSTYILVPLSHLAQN
Test: Measurement of agonist cAMP production by activation of human FSHR
Assay type: cell-based
Settings: CHO-K1 human FSHR cells, 30 minutes at 37° C., HTRF cAMP kit; read-out: hFSHR Agonist cAMP EC50
Procedure, shortened: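 cAMP output was measured by HTRF after 30 min at 37 °C agonist exposure (0–10,000 nM final) in stably FSHR-transfected CHO-K1 cells. Lysate cAMP was read off a standard curve and fitted to obtain half-maximal EC50.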

SMILES	EC50 [nM]
COc1cc2c(cc1-c1cccc(NC(=O)CN3CCN(CC(=O)O)CCN(CC(=O)O)CCN(CC(=O)O)CC3)c1)-c1c(c(C(=O)N3CCOCC3(C)C)nn1-c1cc(Cl)cc(Cl)c1)CO2 [Compound 29, 2,2′,2″-(10-(2-((3-(1-(3,5-dichlorophenyl)-3-(3,3-dimethylmorpholine-4-carbonyl)-7-methoxy-1,4-dihydrochromeno|4,3-c|pyrazol-8-yl)phenyl)amino)-2-oxoethyl)-1,4,7,10-tetraazacyclododecane-1,4,7-triyl)triacetic acid]	> 100
COc1cc2c(cc1-c1cccc(NC(=O)[C@H](CS(=O)(=O)O)NC(=O)CN3CCN(CC(=O)O)CCN(CC(=O)O)CCN(CC(=O)O)CC3)c1)-c1c(c(C(=O)N3CCOCC3(C)C)nn1-c1cc(Cl)cc(Cl)c1)CO2 [Compound 33, (R)-2,2′,2″-(10-(2-((1-((3-(1-(3,5-dichlorophenyl)-3-(3,3-dimethylmorpholine-4-carbonyl)-7-methoxy-1,4-dihydrochromeno|4,3-c|pyrazol-8-yl)phenyl)amino)-1-oxo-3-sulfopropan-2-yl)amino)-2-oxoethyl)-1,4,7,10-tetraazacyclododecane-1,4,7-triyl)triacetic acid]	> 100
COc1cc2c(cc1-c1cccc(NC(=O)C3OC(CNC(=O)CN4CCN(CC(=O)O)CCN(CC(=O)O)CCN(CC(=O)O)CC4)C(O)C(O)C3O)c1)-c1c(c(C(=O)N3CCOCC3(C)C)nn1-c1cc(Cl)cc(Cl)c1)CO2 [Compound 34, 2,2′,2″-(10-(2-((((2S,3R,4R,5R,6S)-6-((3-(1-(3,5-dichlorophenyl)-3-(3,3dimethylmorpholine-4-carbonyl)-7-methoxy-1,4-dihydrochromeno|4,3-c]pyrazol-8-yl)phenyl)carbamoyl)-3,4,5-trihydroxytetrahydro-2H-pyran-2-yl)methyl)amino)-2-oxoethyl)-1,4,7,10-tetraazacyclododecane-1,4,7-triyl)triacetic acid]	10 to 100
COc1cc2c(cc1-c1cccc(NC(=O)C(CNC(=O)CCNC(=O)CN3CCN(CC(=O)O)CCN(CC(=O)O)CCN(CC(=O)O)CC3)CNC(=O)CCNC(=O)CN3CCN(CC(=O)O)CCN(CC(=O)O)CCN(CC(=O)O)CC3)c1)-c1c(c(C(=O)N3CCOCC3(C)C)nn1-c1cc(Cl)cc(Cl)c1)CO2 [Compound 35]	> 100
COc1cc2c(cc1-c1cccc(NC(=O)CCNC(=O)[C@H](CS(=O)(=O)O)NC(=O)CN3CCN(CC(=O)O)CCN(CC(=O)O)CCN(CC(=O)O)CC3)c1)-c1c(c(C(=O)N3CCOCC3(C)C)nn1-c1cc(Cl)cc(Cl)c1)CO2 [Compound 37, (R)-2,2′,2″-(10-(2-((1-((3-((3-(1-(3,5-dichlorophenyl)-3-(3,3dimethylmorpholine-4-carbonyl)-7-methoxy-1,4-dihydrochromeno|4,3-clpyrazol-8-yl)phenyl)amino)-3-oxopropyl)amino)-1-oxo-3-sulfopropan-2-yl)amino)-2-oxoethyl)-1,4,7,10-tetraazacyclododecane-1,4,7-triyl)triacetic acid]	10 to 100
COc1cc2c(cc1-c1cccc(NC(=O)C[C@H](O)C[C@H](O)CCNC(=O)CN3CCN(CC(=O)O)CCN(CC(=O)O)CCN(CC(=O)O)CC3)c1)-c1c(c(C(=O)N3CCOCC3(C)C)nn1-c1cc(Cl)cc(Cl)c1)CO2 [Compound 38]	10 to 100
COc1cc2c(cc1-c1cccc(/C(C)=N/OCCNC(=O)CN3CCN(CC(=O)O)CCN(CC(=O)O)CCN(CC(=O)O)CC3)c1)-c1c(c(C(=O)N3CCOCC3(C)C)nn1-c1cc(Cl)cc(Cl)c1)CO2 [Compound 39]	10 to 100
COc1cc2c(cc1-c1cccc(/C(C)=N/OCCNC(=O)CN3CCN(C(=O)CN4CCN(CC(=O)O)CCN(CC(=O)O)CCN(CC(=O)O)CC4)CC3)c1)-c1c(c(C(=O)N3CCOCC3(C)C)nn1-c1cc(Cl)cc(Cl)c1)CO2 [Compound 40]	10 to 100
COc1cc2c(cc1-c1cccc(/C(C)=N/OCCNC(=O)COCCOCCNC(=O)CN3CCN(CC(=O)O)CCN(CC(=O)O)CCN(CC(=O)O)CC3)c1)-c1c(c(C(=O)N3CCOCC3(C)C)nn1-c1cc(Cl)cc(Cl)c1)CO2 [Compound 41, (E)-2,2′,2″-(10-(1-(3-(1-(3,5-dichlorophenyl)-3-(3,3-dimethylmorpholine-4carbonyl)-7-methoxy-1,4-dihydrochromeno|4,3-c|pyrazol-8-yl)phenyl)-7,16-dioxo-3,9,12-trioxa-2,6,15-triazaheptadec-1-en-17-yl)-1,4,7,10-tetraazacyclododecane-1,4,7-triyl)triacetic acid]	10 to 100
COc1cc2c(cc1-c1cccc(/C(C)=N/OCCNC(=O)CN(C)C(=O)CN(C)C(=O)CN3CCN(CC(=O)O)CCN(CC(=O)O)CCN(CC(=O)O)CC3)c1)-c1c(c(C(=O)N3CCOCC3(C)C)nn1-c1cc(Cl)cc(Cl)c1)CO2 [Compound 42, (E)-2,2′,2″-(10-(1-(3-(1-(3,5-dichlorophenyl)-3-(3,3-dimethylmorpholine-4carbonyl)-7-methoxy-1,4-dihydrochromeno|4,3-c|pyrazol-8-yl)phenyl)-9,12-dimethyl-7,10,13-trioxo-3-oxa-2,6,9,12-tetraazatetradec-1-en-14-yl)-1,4,7,10-tetraazacyclododecane-1,4,7-triyl)triacetic acid]	10 to 100
COc1cc2c(cc1-c1cccc(NC(=O)CONC(=O)CN3CCN(CC(=O)O)CCN(CC(=O)O)CCN(CC(=O)O)CC3)c1)-c1c(c(C(=O)N3CCOCC3(C)C)nn1-c1cc(Cl)cc(Cl)c1)CO2 [Compound 43]	10 to 100

Second part, the compound after the results:

EC50 [nM]	SMILES
< 10	COc1cc2c(cc1-c1cccc(NC(=O)CCOCCOCCOCCOCCNC(=O)[C@@H](CCC(=O)O)NC(=O)CN3CCN(CC(=O)O)CCN(CC(=O)O)CCN(CC(=O)O)CC3)c1)-c1c(c(C(=O)N3CCOCC3(C)C)nn1-c1cc(Cl)cc(Cl)c1)CO2 [Compound 27, (R)-2,2′,2″-(10-(4-(2-carboxyethyl)-21-((3-(1-(3,5-dichlorophenyl)-3-(3,3-dimethylmorpholine-4-carbonyl)-7-methoxy-1,4-dihydrochromeno|4,3-clpyrazol-8-yl)phenyl)amino)-2,5,21-trioxo-9,12,15,18-tetraoxa-3,6-diazahenicosyl)-1,4,7,10-tetraazacyclododecane-1,4,7-triyl)triacetic acid]
< 10	COc1cc2c(cc1-c1cccc(NC(=O)CCOCCOCCOCCOCCNC(=O)CCC(C(=O)O)N3CCN(CC(=O)O)CCN(CC(=O)O)CCN(CC(=O)O)CC3)c1)-c1c(c(C(=O)N3CCOCC3(C)C)nn1-c1cc(Cl)cc(Cl)c1)CO2 (stereo not drawn) [Compound 28]
10 to 100	COc1cc2c(cc1-c1cccc(NC(=O)C[C@@H](NC(=O)CN3CCN(CC(=O)O)CCN(CC(=O)O)CCN(CC(=O)O)CC3)C(=O)O)c1)-c1c(c(C(=O)N3CCOCC3(C)C)nn1-c1cc(Cl)cc(Cl)c1)CO2 [Compound 30]
10 to 100	COc1cc2c(cc1-c1cccc(NC(=O)CC[C@@H](NC(=O)CN3CCN(CC(=O)O)CCN(CC(=O)O)CCN(CC(=O)O)CC3)C(=O)O)c1)-c1c(c(C(=O)N3CCOCC3(C)C)nn1-c1cc(Cl)cc(Cl)c1)CO2 [Compound 31]
10 to 100	COc1cc2c(cc1-c1cccc(NC(=O)CNC(=O)C[C@@H](NC(=O)CN3CCN(CC(=O)O)CCN(CC(=O)O)CCN(CC(=O)O)CC3)C(=O)O)c1)-c1c(c(C(=O)N3CCOCC3(C)C)nn1-c1cc(Cl)cc(Cl)c1)CO2 [Compound 32, (R)-2,2′,2″-(10-(2-((1-carboxy-3-((2-((3-(1-(3,5-dichlorophenyl)-3-(3,3-dimethylmorpholine-4-carbonyl)-7-methoxy-1,4-dihydrochromeno|4,3-clpyrazol-8-yl)phenyl)amino)-2-oxoethyl)amino)-3-oxopropyl)amino)-2-oxoethyl)-1,4,7,10-tetraazacyclododecane-1,4,7-triyl)triacetic acid]
< 10	COc1cc2c(cc1-c1cccc(NC(=O)CCNC(=O)CN3CCC(NC(=O)CN4CCN(CC(=O)O)CCN(CC(=O)O)CCN(CC(=O)O)CC4)CC3)c1)-c1c(c(C(=O)N3CCOCC3(C)C)nn1-c1cc(Cl)cc(Cl)c1)CO2 [Compound 36, 2,2′,2″-(10-(2-((1-(2-((3-((3-(1-(3,5-dichlorophenyl)-3-(3,3dimethylmorpholine-4-carbonyl)-7-methoxy-1,4-dihydrochromeno|4,3-clpyrazol-8-yl)phenyl)amino)-3-oxopropyl)amino)-2-oxoethyl)piperidin-4-yl)amino)-2-oxoethyl)-1,4,7,10-tetraazacyclododecane-1,4,7-triyl)triacetic acid]
< 10	COc1cc2c(cc1-c1cccc(NC(=O)CON=C3CN(C(=O)CN4CCN(CC(=O)O)CCN(CC(=O)O)CCN(CC(=O)O)CC4)C3)c1)-c1c(c(C(=O)N3CCOCC3(C)C)nn1-c1cc(Cl)cc(Cl)c1)CO2 [Compound 44, 2,2′,2″-(10-(2-(3-((2-((3-(1-(3,5-dichlorophenyl)-3-(3,3-dimethylmorpholine-4carbonyl)-7-methoxy-1,4-dihydrochromeno|4,3-c|pyrazol-8-yl)phenyl)amino)-2-oxoethoxy)imino)azetidin-1-yl)-2-oxoethyl)-1,4,7,10-tetraazacyclododecane-1,4,7-triyl)triacetic acid]

From patent US20260137819A1 (Radionetics Oncology, Inc., priority 2022, published 2026)
